PubChem BioAssay AID2060507 (Molecular Pharmacology Branch, DTP, NCI, 2025)

Test system: 519858-162-T-J1-PDC complex spheroid viability
Experiment: Anticancer human tumor 519858-162-T-J1-PDC patient-derived colon adenocarcinoma cell line growth inhibition [GQUAD]
Conditions: for IC50: curve of first compound; for viability, T/C: stronger effect = lower value
How it was run: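 Viability of tumor cells grown as complex spheroids with endothelial and stromal cells, exposed to drug combinations. Top concentration at or near clinical Cmax (else 10 microM), diluted in half-log increments.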

[1] = second compound 0.0316 µM, first compound 0.000999 µM
[2] = second compound 0.0316 µM, first compound 0.00316 µM
[3] = second compound 0.0316 µM, first compound 0.00999 µM
[4] = second compound 0.0316 µM, first compound 0.0316 µM
[5] = second compound 0.0316 µM, first compound 0.0999 µM
[6] = second compound 0.0316 µM, first compound 0.316 µM
[7] = second compound 0.1 µM, first compound 0.000999 µM
[8] = second compound 0.1 µM, first compound 0.00316 µM
[9] = second compound 0.1 µM, first compound 0.00999 µM
[10] = second compound 0.1 µM, first compound 0.0316 µM
[11] = second compound 0.1 µM, first compound 0.0999 µM
[12] = second compound 0.1 µM, first compound 0.316 µM
[13] = second compound 0.316 µM, first compound 0.000999 µM
[14] = second compound 0.316 µM, first compound 0.00316 µM
[15] = second compound 0.316 µM, first compound 0.00999 µM
[16] = second compound 0.316 µM, first compound 0.0316 µM
[17] = second compound 0.316 µM, first compound 0.0999 µM
[18] = second compound 0.316 µM, first compound 0.316 µM
[19] = second compound 1 µM, first compound 0.000999 µM
[20] = second compound 1 µM, first compound 0.00316 µM
[21] = second compound 1 µM, first compound 0.00999 µM
[22] = second compound 1 µM, first compound 0.0316 µM
[23] = second compound 1 µM, first compound 0.0999 µM
[24] = second compound 1 µM, first compound 0.316 µM
[25] = second compound 3.16 µM, first compound 0.000999 µM
[26] = second compound 3.16 µM, first compound 0.00316 µM
[27] = second compound 3.16 µM, first compound 0.00999 µM
[28] = second compound 3.16 µM, first compound 0.0316 µM
[29] = second compound 3.16 µM, first compound 0.0999 µM
[30] = second compound 3.16 µM, first compound 0.316 µM
[31] = second compound 10 µM, first compound 0.000999 µM
[32] = second compound 10 µM, first compound 0.00316 µM
[33] = second compound 10 µM, first compound 0.00999 µM
[34] = second compound 10 µM, first compound 0.0316 µM
[35] = second compound 10 µM, first compound 0.0999 µM
[36] = second compound 10 µM, first compound 0.316 µM
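For viability, T/C in this document: 100% = DMSO vehicle control viability.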

CC[C@@]1(O)C(=O)OCc2c1cc1n(c2=O)Cc2cc3c(CN(C)C)c(O)ccc3nc2-1 + Cc1cnc(CNC(=O)c2c(=O)c3ccc(N4CCCN(C)CC4)nc3n3c2sc2ccccc23)cn1
IC50 (second compound 0.0316 µM): > 316 nM
IC50 (second compound 0.1 µM): > 316 nM
IC50 (second compound 0.316 µM): > 316 nM
IC50 (second compound 1 µM): > 316 nM
IC50 (second compound 3.16 µM): > 316 nM
IC50 (second compound 10 µM): < 0.999 nM
viability, T/C [1]: 88%
viability, T/C [2]: 91%
viability, T/C [3]: 89.7%
viability, T/C [4]: 67.7%
viability, T/C [5]: 78%
viability, T/C [6]: 83.7%
viability, T/C [7]: 93.8%
viability, T/C [8]: 89.3%
viability, T/C [9]: 84.5%
viability, T/C [10]: 79.5%
viability, T/C [11]: 70.9%
viability, T/C [12]: 59.4%
viability, T/C [13]: 90.1%
viability, T/C [14]: 86.8%
viability, T/C [15]: 96.5%
viability, T/C [16]: 78.8%
viability, T/C [17]: 80.7%
viability, T/C [18]: 74.6%
viability, T/C [19]: 66.1%
viability, T/C [20]: 58.9%
viability, T/C [21]: 72.8%
viability, T/C [22]: 49.7%
viability, T/C [23]: 59%
viability, T/C [24]: 62.9%
viability, T/C [25]: 67.2%
viability, T/C [26]: 43.9%
viability, T/C [27]: 75.9%
viability, T/C [28]: 43%
viability, T/C [29]: 38.2%
viability, T/C [30]: 64.4%
viability, T/C [31]: 58.5%
viability, T/C [32]: 34.9%
viability, T/C [33]: 40%
viability, T/C [34]: 41.2%
viability, T/C [35]: 37.8%
viability, T/C [36]: 37.6%

CCc1c2c(nc3ccc(O)cc13)-c1cc3c(c(=O)n1C2)COC(=O)[C@]3(O)CC + Cc1cnc(CNC(=O)c2c(=O)c3ccc(N4CCCN(C)CC4)nc3n3c2sc2ccccc23)cn1
IC50 (second compound 0.0316 µM): > 316 nM
IC50 (second compound 0.1 µM): > 316 nM
IC50 (second compound 0.316 µM): > 316 nM
IC50 (second compound 1 µM): > 316 nM
IC50 (second compound 3.16 µM): < 0.999 nM
IC50 (second compound 10 µM): < 0.999 nM
viability, T/C [1]: 121%
viability, T/C [2]: 57.5%
viability, T/C [3]: 81.9%
viability, T/C [4]: 67.6%
viability, T/C [5]: 74.8%
viability, T/C [6]: 64.7%
viability, T/C [7]: 67.5%
viability, T/C [8]: 105%
viability, T/C [9]: 89.3%
viability, T/C [10]: 55.3%
viability, T/C [11]: 61.1%
viability, T/C [12]: 48.2%
viability, T/C [13]: 95.1%
viability, T/C [14]: 94.8%
viability, T/C [15]: 66.2%
viability, T/C [16]: 67.2%
viability, T/C [17]: 65%
viability, T/C [18]: 69.1%
viability, T/C [19]: 66.6%
viability, T/C [20]: 42.9%
viability, T/C [21]: 72.2%
viability, T/C [22]: 55%
viability, T/C [23]: 75%
viability, T/C [24]: 80.4%
viability, T/C [25]: 35.9%
viability, T/C [26]: 48.5%
viability, T/C [27]: 47.8%
viability, T/C [28]: 47.6%
viability, T/C [29]: 52.8%
viability, T/C [30]: 55%
viability, T/C [31]: 42.9%
viability, T/C [32]: 38%
viability, T/C [33]: 62.9%
viability, T/C [34]: 47%
viability, T/C [35]: 50.3%
viability, T/C [36]: 52.1%

COc1cc(C2c3cc4c(cc3C(OC3OC5COC(C)OC5C(O)C3O)C3COC(=O)C23)OCO4)cc(OC)c1O (stereo not drawn) + Cc1cnc(CNC(=O)c2c(=O)c3ccc(N4CCCN(C)CC4)nc3n3c2sc2ccccc23)cn1
IC50 (second compound 0.0316 µM): > 10000 nM
IC50 (second compound 0.1 µM): > 10000 nM
IC50 (second compound 0.316 µM): 8090 nM
IC50 (second compound 1 µM): > 10000 nM
IC50 (second compound 3.16 µM): 5350 nM
IC50 (second compound 10 µM): < 31.6 nM
viability, T/C [4]: 90%
viability, T/C (second compound 0.0316 µM, first compound 0.1 µM): 94.6%
viability, T/C [6]: 94.9%
viability, T/C (second compound 0.0316 µM, first compound 1 µM): 105%
viability, T/C (second compound 0.0316 µM, first compound 3.16 µM): 59.7%
viability, T/C (second compound 0.0316 µM, first compound 10 µM): 83.3%
viability, T/C [10]: 93.7%
viability, T/C (second compound 0.1 µM, first compound 0.1 µM): 115%
viability, T/C [12]: 86.5%
viability, T/C (second compound 0.1 µM, first compound 1 µM): 79.9%
viability, T/C (second compound 0.1 µM, first compound 3.16 µM): 80.4%
viability, T/C (second compound 0.1 µM, first compound 10 µM): 64.4%
viability, T/C [16]: 59%
viability, T/C (second compound 0.316 µM, first compound 0.1 µM): 69.9%
viability, T/C [18]: 103%
viability, T/C (second compound 0.316 µM, first compound 1 µM): 63.8%
viability, T/C (second compound 0.316 µM, first compound 3.16 µM): 71.9%
viability, T/C (second compound 0.316 µM, first compound 10 µM): 45.1%
viability, T/C [22]: 80.4%
viability, T/C (second compound 1 µM, first compound 0.1 µM): 51.6%
viability, T/C [24]: 62%
viability, T/C (second compound 1 µM, first compound 1 µM): 58.7%
viability, T/C (second compound 1 µM, first compound 3.16 µM): 55.2%
viability, T/C (second compound 1 µM, first compound 10 µM): 61.8%
viability, T/C [28]: 57%
viability, T/C (second compound 3.16 µM, first compound 0.1 µM): 60.3%
viability, T/C [30]: 66.5%
viability, T/C (second compound 3.16 µM, first compound 1 µM): 55.7%
viability, T/C (second compound 3.16 µM, first compound 3.16 µM): 49.5%
viability, T/C (second compound 3.16 µM, first compound 10 µM): 47.7%
viability, T/C [34]: 52.8%
viability, T/C (second compound 10 µM, first compound 0.1 µM): 40.8%
viability, T/C [36]: 56.4%
viability, T/C (second compound 10 µM, first compound 1 µM): 41%
viability, T/C (second compound 10 µM, first compound 3.16 µM): 42.5%
viability, T/C (second compound 10 µM, first compound 10 µM): 74.1%

Cn1ncnc1[C@H]1c2n[nH]c(=O)c3cc(F)cc(c23)N[C@@H]1c1ccc(F)cc1 + Cc1cnc(CNC(=O)c2c(=O)c3ccc(N4CCCN(C)CC4)nc3n3c2sc2ccccc23)cn1
IC50 (second compound 0.0316 µM): > 316 nM
IC50 (second compound 0.1 µM): > 316 nM
IC50 (second compound 0.316 µM): > 316 nM
IC50 (second compound 1 µM): > 316 nM
IC50 (second compound 3.16 µM): < 0.999 nM
IC50 (second compound 10 µM): < 0.999 nM
viability, T/C [1]: 96.5%
viability, T/C [2]: 116%
viability, T/C [3]: 101%
viability, T/C [4]: 72.1%
viability, T/C [5]: 70.2%
viability, T/C [6]: 57.8%
viability, T/C [7]: 60.1%
viability, T/C [8]: 92.9%
viability, T/C [9]: 79.5%
viability, T/C [10]: 79.5%
viability, T/C [11]: 56.8%
viability, T/C [12]: 65.2%
viability, T/C [13]: 85.3%
viability, T/C [14]: 81.8%
viability, T/C [15]: 65.9%
viability, T/C [16]: 72%
viability, T/C [17]: 61.5%
viability, T/C [18]: 58.9%
viability, T/C [19]: 85.2%
viability, T/C [20]: 72.3%
viability, T/C [21]: 60.9%
viability, T/C [22]: 73.3%
viability, T/C [23]: 69.9%
viability, T/C [24]: 72.7%
viability, T/C [25]: 47.3%
viability, T/C [26]: 48.7%
viability, T/C [27]: 50.3%
viability, T/C [28]: 38.7%
viability, T/C [29]: 43.1%
viability, T/C [30]: 52.3%
viability, T/C [31]: 26.9%
viability, T/C [32]: 54%
viability, T/C [33]: 44.4%
viability, T/C [34]: 50.4%
viability, T/C [35]: 49.1%
viability, T/C [36]: 72%
